Consider one compound from patent publication US8256433B2 (priority 1999, dated 2012).

For this data set the following is noted: pH 3.

As for `CN1CCCC1c1cccnc1.O=C(O)C(O)C(O)C(=O)O` (stereo not shown) [Nicotine Bitartrate, nicotine bitartrate], the “loss of nicotine into the polymeric dosage form materials, comparison of salts” value is reported as “better”.
